{
  "source": "patent US5795861A",
  "about": "“Methods for regulating gastrointestinal motility” (Amylin Pharmaceuticals Inc., priority 1995, dated 1998)",
  "key": {"[1]": {"test": "solubility and stability compared to human amylin", "assay_type": "physicochemical"}, "[2]": {"test": "plasma AC-0137 levels after IV bolus or infusion (clinical study)", "assay_type": "in vivo, human", "conditions": "after IV bolus injection", "from_the_text": "Subjects in each dose group underwent a two period crossover to examine intravenous (IV) bolus versus IV infusion of drug. Each period consisted of a three-day confinement to the study unit. On each occasion, the initial day of confinement was allowed for acclimatization to the study unit. The second and third days constituted an imbedded crossover of placebo versus active medication. […] An imbedded cross-over design for the administration of drug and placebo on Days 2 and 3 of this admission was employed in a manner similar to that used during the first admission. The six subjects assigned to the placebo group received placebo on each of the study days.\nOn study days, intravenous catheters were inserted at least 30 minutes prior to the start of the study. 15 minutes before dosing, the subjects took their usual insulin dose via subcutaneous injection. […] The infusion rate was designed to administer the assigned amount of drug over the two hour period. Thirty minutes later, the subjects ingested their normal breakfasts."}},
  "data": [
    {"smiles": "CC[C@H](C)[C@H](NC(=O)[C@@H]1CCCN1C(=O)CNC(=O)[C@H](Cc1ccccc1)NC(=O)[C@H](CC(N)=O)NC(=O)[C@H](CC(N)=O)NC(=O)[C@H](CO)NC(=O)[C@H](CO)NC(=O)[C@H](Cc1c[nH]cn1)NC(=O)[C@@H](NC(=O)[C@H](CC(C)C)NC(=O)[C@H](Cc1ccccc1)NC(=O)[C@H](CC(N)=O)NC(=O)[C@H](C)NC(=O)[C@H](CC(C)C)NC(=O)[C@H](CCCNC(=N)N)NC(=O)[C@H](CCC(N)=O)NC(=O)[C@@H](NC(=O)[C@H](C)NC(=O)[C@@H]1CSSC[C@H](NC(=O)[C@@H](N)CCCCN)C(=O)N[C@@H](CC(N)=O)C(=O)N[C@@H]([C@@H](C)O)C(=O)N[C@@H](C)C(=O)N[C@@H]([C@@H](C)O)C(=O)N1)[C@@H](C)O)C(C)C)C(=O)N[C@@H](CC(C)C)C(=O)N1CCC[C@H]1C(=O)N1CCC[C@H]1C(=O)N[C@H](C(=O)N[C@@H](CC(N)=O)C(=O)N[C@H](C(=O)NCC(=O)N[C@@H](CO)C(=O)N[C@@H](CC(N)=O)C(=O)N[C@H](C(=O)N[C@@H](Cc1ccc(O)cc1)C(N)=O)[C@@H](C)O)C(C)C)[C@@H](C)O", "note": "[AC-0137, ^25,28,29 Pro-h-amylin]", "values": [
      {"measurement": "solubility and stability characteristics", "setting": "[1]", "result": "more desirable solubility and stability characteristics"},
      {"measurement": "disappearance of drug from the plasma compartment", "setting": "[2]", "result": "apparent first-order kinetics"}
    ]}
  ]
}
